The test system of test [1] is HeLa cells. The test is described as follows: In vitro assay system for regulation of cell death by the Bcl-2 family (Bax-induced cell death, electroporation, beta-galactosidase reporter). The test is classed as cell-based, Human. Particulars: for cell viability as compared to controls: expression plasmid transfected alone by electroporation, 18 hours post-transfection. From the text: This assay is based on transient transfection of cultured cells (e.g., HeLa cells, SH-SY5Y neuroblastoma cells. PC12, pheochromocytoma cells, 293 kidney cells, primary neuronal cells etc.), via electroporation or cationic-lipid-mediated transfection, by an expression vector, harboring a reporter gene (e.g. the gene encoding for beta-galactosidase, or the gene encoding for luciferase). Based on the consideration that gene expression requires high level of function and integrity of cellular systems, a direct correlation can be drawn between the activity of the protein encoded by the reporter gene, and the survival rates of the transfected cells. The reporter gene is co-transfected with a second expression vector, carrying either the bcl-2 or bax genes, therefore affecting the cellular apoptotic threshold towards life or death, respectively. In addition, transfection of cells with a combination of both bcl-2 and bax genes is performed, to examine the activity of each of these two proteins in opposing the death-inhibitory or promoting-effect of the other, respectively.
(§1) a. Cell cultures: • 1. HeLa cells: Human cervical carcinoma cells (HeLa) were grown in Dulbecco's modified Eagle's medium (DMEM), supplemented with 10% fetal calf serum (FCS) and 1% penicillin-streptomycin-Nystatin solution (Biological Industries, Israel), and 1% L-Glutamine solution (2 mM, biological Industries, Israel). Cells were grown in monolayer at 37° C. in 5% CO2. • 2. Kidney 293 cells (T): Human embryonic kidney 293 cells were grown in the conditions described for the HeLa cells.
b. Models of Apoptosis: • Three model systems of cell death were used: • 1. Apoptosis induced by dopamine: Exposure of cells to dopamine at 100-500 micromolar for 24 hours induces cell death characteristic of apoptosis (Ziv I, et al., Neurosci Lett 170:136-140, 1994; Offen D, et al., Biochim Biophys Acta 1268:171-177, 1995; Masserano J M, et al., Mol Pharmacol 50:1309-1315, 1996; Shirvan A, et al., J. Neurochem 69:539-549, 1997; Corona V., et al., J. Neurochem 69:1870-1881, 1997; Velez-Pardo C, et al., Pharmacol Toxicol 80:76-84, 1997; Shinkai T, et al., J Neurosci Res. 393-399, 1997; Simantov R, et al., Neuroscience 74:39-50, 1996; Gabby M, et al., Neuropharmacology 35:571-578, 1996). […] Apoptosis induced by Bax. This model utilizes an in vitro assay system for regulation of cell death by the Bcl-2 family of proteins: Cells were grown as described above in example 3a. Cells from log phase of growth were harvested using trypsin/EDTA and resuspended at a density of 5.0×10^6 cells/ml in 400 μl PBS. Cell suspension was then transferred to electroporation chambers containing a marker plasmid (pCDNA/Lac z) encoding beta-galactosidase as a reporter gene (10 μg)+a control plasmid (pCDNA), to bring total plasmid quantity to 23 micrograms+one of the following regimens: • 1. An expression plasmid, encoding Bcl-2 (0.42 μg) • 2. An expression plasmid, encoding Bax (0.42 μg). • 3. Bcl-2-encoding plasmid+Bax-encoding plasmid (0.42 μg each). • 4. Test compound, or an expression plasmid encoding for the test peptide+either Bcl-2-encoding plasmid or Bax-encoding plasmid or both. • 5. Control: only the marker plasmid.
After one minute of incubation, electroporation was performed at 1050 μF and 220 V for a duration of 10-30 ms, using an Equibio gene pulser. Cells from the cuvettes were then pooled into a complete medium with 10% FCS, and 1×10^6 cells were aliquoted into 3.5 cm plates. At 18 hours post-transfection, cell viability was assessed through measurement of beta-galactosidase activity by standard methods (Sambrook, Fritch, Maniatis, Molecular cloning; A laboratory manual, Cold Spring Harbour Laboratory Press, pp 16.66, 1989). OD values were expressed as percent of control, and statistical significance was evaluated by appropriate parametric or non-parametric statistical tests.
Methods: An expression plasmid, encoding the DIP1 (synthesized as described above in Example 2) was used. […]

Test [2] has as its system embryonic kidney 293T cells. The test can be described thus: Cell-killing effect of Bax on embryonic kidney 293T cells (beta-galactosidase reporter). It is filed as cell-based, Human. The conditions noted are these: expression plasmids encoding Bax and DIP1, Superfect transfection, 18 hours. As to the method:
as §1
Methods: Human embryonic kidney 293T cells were grown as specified in Example 3.a. Cells were co-transfected using the Superfect Transfection Kit (Quiagen), with 5 μg total DNA of the following effectors: pCDNA/Lac-z reporter plasmid and one of the following:
• 1). Expression plasmid encoding DIP1. • 2). Expression plasmid encoding Bax. • 3). Expression plasmids, encoding Bax and DIP1.
After 18 hours, the cells were harvested for beta-galactosidase activity assay.
Human embryonic kidney 293T cells were co-transfected by […] with a reporter plasmid encoding beta-galactosidase, in combination with either an expression plasmid encoding DIP1; an expression plasmid encoding Bax; or expression plasmids encoding Bax and DIP1. Cell viability was evaluated after 18 hours, by measurement of beta-galactosidase activity.

Test [3] relates to HeLa cells. Particulars: 18 hours.
Procedure: (§2) Models of Apoptosis: • Three model systems of cell death were used: • 1. […] Apoptosis induced by Bax. This model utilizes an in vitro assay system for regulation of cell death by the Bcl-2 family of proteins: Cells were grown as described above in example 3a. Cells from log phase of growth were harvested using trypsin/EDTA and resuspended at a density of 5.0×10^6 cells/ml in 400 μl PBS. Cell suspension was then transferred to electroporation chambers containing a marker plasmid (pCDNA/Lac z) encoding beta-galactosidase as a reporter gene (10 μg)+a control plasmid (pCDNA), to bring total plasmid quantity to 23 micrograms+one of the following regimens: • 1. An expression plasmid, encoding Bcl-2 (0.42 μg) • 2. An expression plasmid, encoding Bax (0.42 μg). • 3. Bcl-2-encoding plasmid+Bax-encoding plasmid (0.42 μg each). • 4. Test compound, or an expression plasmid encoding for the test peptide+either Bcl-2-encoding plasmid or Bax-encoding plasmid or both. • 5. Control: only the marker plasmid.
Cell viability was then evaluated by determining beta-galactosidase activity.
For test [4], the system named is HeLa cells. The test is described as follows: Dopamine-induced cell death in HeLa cells (beta-galactosidase reporter viability). The test is classed as cell-based, Human. The conditions noted are these: 18 hours; for cell survival rate: P<0.001.
Procedure: as §2
Cell viability was then evaluated by the measurement of the beta-galactosidase activity, as specified above.
Synthetic DIP1 was introduced into HeLa cells with a beta-galactosidase reporter plasmid by electroporation. […] Cell viability was then evaluated by measurement of the beta-galactosidase activity.

Like-named read-outs stand apart in the source and are kept apart here.

The record followed here is patent US6849603B1, “Peptides for inhibition of apoptosis and pharmaceutical compositions containing them” (NSS T Neurosurvival Technologies Ltd., priority 1998, dated 2005).

Regarding “H-FELRYRRAF-OH [DIP1, Phe-Glu-Leu-Arg-Tyr-Arg-Arg-Ala-Phe]”, the cell survival rate in the test with HeLa cells [1] (co-transfection of DIP1-encoding plasmid with Bax-encoding plasmid, 18 hours, p<0.001) is 71.4 ± 9.4 % of control; in the test on HeLa cells [3] (synthetic DIP1 by electroporation + hydrogen peroxide 100 μM, p<0.001), 53.3±8.8%; with HeLa cells [3] (synthetic DIP1 by electroporation + hydrogen peroxide 200 μM, p<0.001) it was 33.4±3.7%; with HeLa cells [4] (synthetic DIP1 by electroporation + dopamine 150 μM), 75.4+9.0%; in the test on HeLa cells [4] (synthetic DIP1 by electroporation + dopamine 300 μM) it was 40.2+8.0%. In addition, the “cell viability as compared to controls” value in the test with HeLa cells [1] is listed as “markedly enhanced cell viability”. The “counteracting Bax toxicity” value in test [2] is “markedly active in counteracting Bax toxicity”.
Take “Bax: death-inducing Bcl-2 family protein, expressed from a transfected expression plasmid”: the cell survival rate with HeLa cells [1] (Bax-encoding plasmid alone, 18 hours) is 37.0 ± 2.2%. Besides, the “cell viability as compared to controls” value with HeLa cells [1] is “marked death-inducing effect”.
Consider “Bcl-2: death-inhibitory protein, expressed from a transfected expression plasmid”, for which the “cell-killing effect of Bax on co-transfection” value with HeLa cells [1] (co-transfection with Bax-encoding plasmid, 18 hours) is on record as “markedly counteracted”. The “cell viability as compared to controls” value with HeLa cells [1] is “increases cell viability”.
Take `OO` [hydrogen peroxide, reference compound]: the cell survival rate is reported as 20.4±2.8% of control in the test with HeLa cells [3] (hydrogen peroxide 100 μM alone, mean±SD) and 5.8±2.1% of control with HeLa cells [3] (hydrogen peroxide 200 μM alone, mean±SD).
With `NCCc1ccc(O)c(O)c1` [dopamine, reference compound], the cell survival in the test on HeLa cells [4] (dopamine 150 μM alone) is recorded as 30.8 ± 6.0% of control; with HeLa cells [4] (dopamine 300 μM alone), 8.4 ± 7.0% of control.
